Results published in article PMC10831071, “Reaction hijacking inhibition of Plasmodium falciparum asparagine tRNA synthetase” (Nature Communications, 2024).
Several values for one entry are separate records, joined by “and”; a condition that tells them apart may be missing. Equal values may be shown once. Read-outs that look alike come from different tables or passages of the source.

What was measured:
Assay in all cases: microbe, parasite or virus in culture
Assay type in all cases: cell-based, Plasmodium falciparum
[1] = test system: PfAlaRS cKD P. falciparum line; details: for Growth: PfAlaRS K/D; for IC50: PfAlaRS line, individual repeats
Text: (§1) Conditional knockdown (cKD) P. falciparum lines were generated for the cytosolic AsnRS (PF3D7_0211800), cytosolic AlaRS (PF3D7_1367700), cytosolic GlyRS (GlyRS; PF3D7_1420400), PfNT4 (PF3D7_0103200), P. falciparum glutamate dehydrogenase 3 (GDH3; PF3D7_0802000), and P. falciparum carbonic anhydrase (CA, PF3D7_1140000) by fusing the coding sequences and non-coding RNA aptamer sequences in the 3’-UTR, permitting translation regulation using the TetR-DOZI system[59],[60]. Gene editing was achieved by CRISPR/SpCas9 using the linear pSN054 vector that contains cloning sites for the left homology region (LHR) and the right homology region (RHR) as well a target-specific guide RNA under control of the T7 promoter. Cloning into the pSN054 donor vector was carried out following described procedures[59],[60]. The vector includes V5-2xHA epitope tags, a 10x tandem array of TetR aptamers upstream of an Hsp86 3’UTR, and a multicistronic cassette for expression of TetR-DOZI (translation regulation), blasticidin S-deaminase (selection marker) and a Renilla luciferase (RLuc) reporter. All primer and synthetic fragment sequences that were generated using the BioXP™ system and IDT gBlocks™ are included in Supplementary Table 9. The final constructs were sequence-verified and further confirmed by restriction digests.
(§2) Transfection into Cas9- and T7 RNA polymerase-expressing NF54 parasites was carried out by pre-loading red blood cells (RBCs) with the donor vector[61]. […] Cultures were monitored by Giemsa smears and RLuc measurements.
(§3) DMSO- and dihydroartemisinin-treatment (0.5 µM) served as reference controls.

[2] = test system: PfAsnRS cKD P. falciparum line; details: for growth after 72 h exposure, normalised to no drug: PfAsnRS K/D, replicates
Text: as §1, §2, §3

[3] = test system: PfCA cKD P. falciparum line; details: PfCA K/D
Text: as §1, §2, §3

With `Nc1ncnc2cc(-c3cccc(S(N)(=O)=O)c3)sc12` [OSM-S-106] the Growth ([1]; 3.125 nM OSM-S-106, 500 nM aTc) was 106.745 and 98.2451 and 120.926, the Growth ([1]; 6.25 nM OSM-S-106, 500 nM aTc) was 90.3733 and 84.6837 and 109.578 and the Growth ([1]; 12.5 nM OSM-S-106, 500 nM aTc) was 88.5694 and 88.7266 and 97.0041. For the same compound, the Growth ([1]; 25 nM OSM-S-106, 500 nM aTc) was 83.1875 and 95.5017 and 98.3659, the Growth ([1]; 50 nM OSM-S-106, 500 nM aTc) was 55.6885 and 91.3478 and 80.2088 and the Growth ([1]; 200 nM OSM-S-106, 500 nM aTc) was 76.3648. It also gave a Growth ([1]; 200 nM OSM-S-106, […] aTc) of 67.5946, an IC50 ([1]; 1 nM, […] aTc or no aTc) of 46.2 nM and an IC50 ([1]; 500 nM aTc) of 99.7 nM. The IC50 ([1]; Plasmodium falciparum, 1 nM, […] aTc or no aTc) was 56.8 nM, the IC50 ([1]; Plasmodium falciparum, 500 nM aTc) was 78.4 nM and the “growth after 72 h exposure, normalised to no drug” value (from here on “growth … normalised to no drug”) ([2]; 1 nM aTc, 3.125 nM) was 100 (2×) and 98.2196. For the same compound, the “growth … normalised to no drug” value ([2]; 1 nM aTc, 6.25 nM) was 101.298 and 95.7154 and 83.7406, the “growth … normalised to no drug” value ([2]; 1 nM aTc, 12.5 nM) was 113.486 and 107.859 and 50.8034 and the “growth … normalised to no drug” value ([2]; 1 nM aTc, 25 nM) was 72.3501 and 87.3666 and 36.7561. For the same compound, the “growth … normalised to no drug” value ([2]; 1 nM aTc, 50 nM) was 8.286 and 14.406 and 55.7128, the “growth … normalised to no drug” value ([2]; 1 nM aTc, 100 nM) was 12.9721 and 14.646 and 33.4758 and the “growth … normalised to no drug” value ([2]; 1 nM aTc, 200 nM) was 2.187 and 4.184 and 3.619. The “growth … normalised to no drug” value ([2]; 1 nM aTc, 400 nM) was 0.0118 and 0.3256 and 1.407, the “growth … normalised to no drug” value ([2]; 1 nM aTc, 800 nM) was 0 (2×) and 0.3116 and the “growth … normalised to no drug” value ([2]; 1 nM aTc, […]) was 95.5045. For the same compound, the “growth … normalised to no drug” value ([2]; 500 nM aTc, 3.125 nM) was 100 (2×) and 130.484, the “growth … normalised to no drug” value ([2]; 500 nM aTc, 6.25 nM) was 102.095 and 95.7689 and 98.7064 and the “growth … normalised to no drug” value ([2]; 500 nM aTc, 12.5 nM) was 106.159 and 101.462 and 104.967. The “growth … normalised to no drug” value ([2]; 500 nM aTc, 25 nM) was 108.223 and 97.6665 and 110.496, the “growth … normalised to no drug” value ([2]; 500 nM aTc, 50 nM) was 109.874 and 96.9998 and 112.12 and the “growth … normalised to no drug” value ([2]; 500 nM aTc, 100 nM) was 74.5373 and 61.9971 and 57.4067. The “growth … normalised to no drug” value ([2]; 500 nM aTc, 200 nM) was 13.0647 and 13.1882 and 56.7167, the “growth … normalised to no drug” value ([2]; 500 nM aTc, 400 nM) was 1.083 and 1.38 and 11.7035 and the “growth … normalised to no drug” value ([2]; 500 nM aTc, 800 nM) was 0 (2×) and 1.573. For the same compound, the “growth … normalised to no drug” value ([2]; 500 nM aTc, […]) was 123.179, the IC50 ([2]; PfAsnRS line, 500 nM aTc, individual repeats) was 116 nM and 175 nM and the IC50 ([2]; Plasmodium falciparum, PfAsnRS line, 500 nM aTc, individual repeats) was 123 nM. For the same compound, the IC50 ([2]; Plasmodium falciparum, read-out: Mean IC50 with 500 nM aTc, PfAsnRS line, 500 nM aTc) was 140 nM, the IC50 ([2]; Plasmodium falciparum, read-out: Mean IC50 with low (1 or […])/ no aTc, PfAsnRS knockdown, low aTc) was 26 nM and the Growth ([3]; 3.125 nM OSM-S-106, 500 nM aTc) was 126.787 and 158.672 and 147.974. The Growth ([3]; 3.125 nM OSM-S-106, no aTc) was 126.423 and 113.544 and 101.394, the Growth ([3]; 6.25 nM OSM-S-106, 500 nM aTc) was 92.3654 and 131.4 and 126.99 and the Growth ([3]; 6.25 nM OSM-S-106, no aTc) was 110.949 and 103.392 and 134.667. The Growth ([3]; 12.5 nM OSM-S-106, 500 nM aTc) was 103.771 and 150.344 and 136.72, the Growth ([3]; 12.5 nM OSM-S-106, no aTc) was 107.898 and 113.66 and 101.587 and the Growth ([3]; 25 nM OSM-S-106, 500 nM aTc) was 66.7109 and 104.005 and 106.363. The Growth ([3]; 25 nM OSM-S-106, no aTc) was 55.2693 and 67.1039 and 67.9395, the Growth ([3]; 50 nM OSM-S-106, 500 nM aTc) was 39.8979 and 23.9771 and 45.5735 and the Growth ([3]; 50 nM OSM-S-106, no aTc) was 31.2463 and 15.9234 and 30.4793. The Growth ([3]; 100 nM OSM-S-106, 500 nM aTc) was 11.4398, the Growth ([3]; 100 nM OSM-S-106, no aTc) was 10.8379 and 9.475 and 12.418 and the Growth ([3]; 200 nM OSM-S-106, 500 nM aTc) was 5.818 and 8.3279 and 9.44.
